Measurements published in patent publication US7932262B2 (Novartis AG, priority 2006, dated 2011).
Where two headings read alike, the source gives them in different places.

Assays:
PC-3 cells = assay: Cell Proliferation Assay (Cell Titer Glo), PC-3 cell line; format: cell-based; settings: Homo sapiens, read-out: CPEC50 PC3
Procedure: IV. Cell Proliferation Assay Protocol:
A2780, PC-3, or PC3MM cells were seeded at 1000 cells/well in 100 μL/well (10.000 cells/mL) growth media in 96-well plates. Cells were allowed to adhere to the bottom of plates for 3-5 hours in a 37° C. 5% CO2 incubator. Compounds were dissolved in DMSO and then transferred to the cell plates. The cells were incubated with the compounds for 3 days in a 37° C. 5% CO2 incubator. The growth medium containing the compounds was then removed from the cells and fresh medium was added, followed by 100 μL of Cell Titer Glo assay reagent (Promega). This mixture was shaken for 1 minute and then incubated without shaking for 10 minutes. Activity determinations for the compounds were made by detection on a Trilux Instrument.
V. Cell Proliferation Assay Protocol: PC-3 Cell Line
PC-3 cells were seeded at 1000 cells/well in 100 μL/well (10.000 cells/mL) along with growth media into black-walled, clear bottom 96-well plates. The cells were allowed to adhere to the bottom of the plate for 3-5 hours in a 37° C. 5% CO2 incubator.
Test compounds were diluted to 500× in DMSO. The DMSO solutions of six of the compounds were transferred to the cells in the 96 well round bottom plate, column 2, row B-F. A 1:3 serial dilution of each compound was carried out. The serial dilution comprised adding 20 μL of DMSO to the wells containing the compounds and doing a 1:3 dilution across the plate from columns 2-10. Column 11 contained only DMSO. The serial dilution was carried out using a BioMek 2000 protocol “CP Serial Dilution using 250 μL tips” or “Proliferation Compound” (if using 20 μL tips).
To a 96 deep well block, columns 2-11 rows B-F, was transferred 500 μL of growth medium. Using the FX protocol “HH_CellAssay—2 μL to 500 μL”, 2 μL of compound from each cell of the compound plate was transferred to the corresponding cell in the 96 deep well block containing 500 μL of growth medium. The instrument was programmed to dilute the compound in growth medium and then transfer 100 μL of that mixture to cell plates containing cells. The cell plates, to which test compounds had been added, were incubated for 3 days at 37° C. Following the incubation, the medium was removed and replaced with fresh medium. Cell Titer Glo (100 μL) was added to each well and the plate was shaken for 1 minute and then incubated without shaking for 10 minutes. The plates were then read using a Trilux instrument.

PDK1 kinase = target: T1, PDK1 kinase (Homo sapiens, UniProt O15530); assay: PDK1 Kinase Alpha Screen Assay; format: biochemical
T1 sequence (O15530 1-556): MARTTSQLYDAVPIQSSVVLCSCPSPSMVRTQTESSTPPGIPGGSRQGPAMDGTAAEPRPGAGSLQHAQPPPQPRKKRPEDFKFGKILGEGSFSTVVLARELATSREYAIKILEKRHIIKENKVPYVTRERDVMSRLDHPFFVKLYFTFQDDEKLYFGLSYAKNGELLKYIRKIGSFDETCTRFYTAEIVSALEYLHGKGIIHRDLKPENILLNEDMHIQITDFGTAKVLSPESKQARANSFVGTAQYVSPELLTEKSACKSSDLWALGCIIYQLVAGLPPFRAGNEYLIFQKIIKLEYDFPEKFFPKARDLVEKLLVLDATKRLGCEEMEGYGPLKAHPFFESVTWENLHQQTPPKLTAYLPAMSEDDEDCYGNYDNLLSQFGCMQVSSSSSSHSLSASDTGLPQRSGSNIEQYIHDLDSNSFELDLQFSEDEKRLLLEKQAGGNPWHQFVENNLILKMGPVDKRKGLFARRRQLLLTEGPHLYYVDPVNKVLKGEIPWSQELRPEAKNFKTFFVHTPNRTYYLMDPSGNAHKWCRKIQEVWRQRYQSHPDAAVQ
Procedure: 1. PDK1 Kinase Alpha Screen Assay
Reagents/Concentrations: The PDK1-4 peptide substrate, biotin-[…]-NH2, was purchased from the Tufts University Core Facility. The final concentration of PDK1-4 peptide substrate was 50 nM The ATP substrate (Adenosine-5′-triphosphate) was purchased from Roche Diagnostics. The final concentration of ATP substrate was 10 uM. Phospho-(Ser/Thr) PKA substrate antibody was purchased from Cell Signaling Technology. The final concentration of antibody was 0.3 mg/ml. The Alpha Screen Protein A detection kit containing donor and acceptor beads was purchased from PerkinElmer Life Sciences. The final concentration of both donor and acceptor beads was 25 μg/ml. Alpha Screen was used for detection. The biotinylated-PDK1-4 peptide was phosphorylated by PDK1 kinase using the ATP substrate. The biotinylated-PDK1-4 peptide substrate was bound to the streptavidin coated donor bead. The antibody was bound to the protein A coated acceptor bead. The antibody bound to the phosphorylated form of the biotinylated PDK-1 peptide substrate, bringing the donor and acceptor beads into close proximity. Laser irradiation of the donor bead at 680 nm generated a flow of short-lived singlet oxygen molecules. When the donor and acceptor beads were in close proximity, the reactive oxygen generated by the irradiation of the donor beads initiated a luminescence/fluorescence cascade in the acceptor beads. This process led to a highly amplified signal with output in the 530-620 nm range. Assays were carried out in 50 mM Tris, pH=7.5, 10 mM MgCl2, 0.1% Bovine Serum Albumin, 0.01% Tween-20, 2 mM Dithiolthreitol, 2.5% Dimethyl Sulfoxide. Reactions were stopped by adding 50 mM Tris, pH=7.5, 90 mM EDTA, 0.1% Bovine Serum Albumin, 0.01% Tween-20.
Procedure: To 10 μl of PDK1-4 peptide, 0.5 μl of test compound in dimethyl sulfoxide is added. PDK1 kinase and ATP are mixed. 10 μl of the PDK1 kinase/ATP mix is added to start the reaction. The reaction is allowed to proceed for 3-18 hours. The reactions are stopped by adding 10 μl of the EDTA-containing stop buffer. Beads are mixed with antibody. 25 μl of the bead/antibody mix is added to the stopped reactions. Plates are incubated at room temperature overnight to allow for detection development before being read. The assay is run is a 384-well format. […]

[1] = PC-3, Cell Proliferation Assay, PC3
[2] = PDK1 Kinase Alpha Screen Assay, read-out: PDK1 IC50

Row | SMILES | EC50 (PC-3 cells; [1]) [µM] | IC50 (PDK1 kinase; [2]) [µM] | EC50 (PC-3 cells; PC-3, PC3 cells) [µM] | IC50 (PDK1 kinase; read-out: PDK1 IC50) [µM] | IC50 (PDK1 kinase; head of the second part of Table 4: BV11261, read-out: PDK1 BV11261) [µM]
1 | O=C(NC1CC1)c1ccc(Nc2ncc3c(Cl)ccc(OC4CNC4)c3n2)cc1 [Compound 613, 4-(8-(azetidin-3-yloxy)-5-chloroquinazolin-2-ylamino)-N-cyclopropylbenzamide] | < 5 | < 5 | – | – | –
2 | Nc1ncc2cccc(O)c2n1 [Compound 524, 2-aminoquinazolin-8-ol] | < 5 | 10 to 25 | – | – | –
3 | Cn1cc(-c2ccc(Nc3ncc4ccc(OC5CCNCC5)cc4n3)cc2F)cn1 [Compound 598, N-(3-fluoro-4-(1-methyl-1H-pyrazol-4-yl)phenyl)-7-(piperidin-4-yloxy)quinazolin-2-amine] | 5 to 10 | < 5 | – | – | –
4 | CC(C)N1CCC(Oc2cccc3cnc(N)nc23)CC1 [Compound 523, 8-(1-isopropylpiperidin-4-yloxy)quinazolin-2-amine] | 5 to 10 | 5 to 10 | – | – | –
5 | O=S(=O)(c1ccc(Nc2ncc3ccc(OC4CCN(CCF)CC4)cc3n2)cc1)N1CCOCC1 [Compound 333, 7-(1-(2-fluoroethyl)piperidine-4-yloxy)-N-(4-(morpholinosulfonyl)phenyl)quinazolin-2-amine] | < 5 | < 5 | – | – | –
6 | c1cc(CN2CCOCC2)cc(Nc2ncc3cccc(-c4ccc(NCCN5CCCC5)nc4)c3n2)c1 [Compound 465, N-(3-(morpholinomethyl)phenyl)-8-(6-(2-(pyrrolidin-1-yl)ethylamino)pyridin-3-yl)quinazolin-2-amine] | < 5 | < 5 | – | – | –
7 | CNS(=O)(=O)c1ccc(Nc2ncc3ccc(O)c(C4CCN(C(C)C)CC4)c3n2)cc1 [Compound 549] | < 5 | < 5 | – | – | –
8 | CCOC(=O)c1cc(F)cc(Nc2ncc3cccc(OC4CCNCC4)c3n2)c1 [Compound 451, ethyl 3-fluoro-5-(8-(piperidin-4-yloxy)quinazolin-2-ylamino)benzoate] | < 5 | < 5 | – | – | –
9 | O=C(c1ccc(Nc2ncc3ccc(-c4cnn(CCO)c4)cc3n2)cc1)N1CCOCC1 [Compound 353, (4-(7-(1-(2-hydroxyethyl)-1H-pyrazol-4-yl)quinazolin-2-ylamino)phenyl)(morpholino)methanone] | 5 to 10 | < 5 | – | – | –
10 | O=S(=O)(c1ccc(Nc2ncc3c(Cl)ccc(OC4CCNCC4)c3n2)cc1)N1CCOCC1 [Compound 606, 5-chloro-N-(4-(morpholinosulfonyl)phenyl)-8-(piperidin-4-yloxy)quinazolin-2-amine] | < 5 | < 5 | – | – | –
11 | O=C(c1ccc(Nc2ncc3cccc(-c4ccc(NCCN5CCCC5)nc4)c3n2)cc1)N1CCOCC1 [Compound 403, morpholino(4-(8-(6-(2-(pyrrolidin-1-yl)ethylamino)pyridin-3-yl)quinazolin-2-ylamino)phenyl)methanone] | < 5 | < 5 | – | – | –
12 | CC(C)N1CCC(Oc2cccc3cnc(Nc4cccc(F)c4)nc23)CC1 [Compound 527, N-(3-fluorophenyl)-8-(1-isopropylpiperidin-4-yloxy)quinazolin-2-amine] | < 5 | < 5 | – | – | –
13 | Nc1cc(C(F)(F)F)c(-c2cccc3cnc(Nc4ccc(S(N)(=O)=O)cc4)nc23)cn1 [Compound 930, 4-(8-(6-amino-4-(trifluoromethyl)pyridin-3-yl)quinazolin-2-ylamino)benzenesulfonamide] | – | – | < 5 | < 5 | –
14 | CN(Cc1cncc(-c2cccc3cnc(Nc4ccc(S(N)(=O)=O)cc4)nc23)c1)C1CCOCC1 [Compound 950, 4-(8-(5-((methyl(tetrahydro-2H-pyran-4-yl)amino)methyl)pyridin-3-yl)quinazolin-2-ylamino)benzenesulfonamide] | – | – | < 5 | < 5 | –
15 | Cc1ccc(OC2CCNCC2)c2nc(Nc3cccc(F)c3)ncc12 [Compound 365, N-(3-fluorophenyl)-5-methyl-8-(piperidin-4-yloxy)quinazolin-2-amine] | 5 to 10 | < 5 | – | – | –
16 | CN1CCN(Cc2cncc(-c3cccc4cnc(Nc5ccc(S(N)(=O)=O)cc5)nc34)c2)CC1 [Compound 943, 4-(8-(5-((4-methylpiperazin-1-yl)methyl)pyridin-3-yl)quinazolin-2-ylamino)benzenesulfonamide] | – | – | < 5 | < 5 | –
17 | CC(C)NC(=O)c1ccc(Nc2ncc3cccc(-c4ccc(NCCN5CCCC5)nc4)c3n2)cc1 [Compound 993, N-isopropyl-4-(8-(6-(2-(pyrrolidin-1-yl)ethylamino)pyridin-3-yl)quinazolin-2-ylamino)benzamide] | – | – | < 5 | < 5 | –
18 | Brc1ccc(OC2CCNCC2)c2nc(Nc3cccc(N4CCOCC4)c3)ncc12 [Compound 336, 5-bromo-N-(3-morpholinophenyl)-8-(piperidin-4-yloxy)quinazolin-2-amine] | 5 to 10 | < 5 | – | – | –
19 | CC(C)N1CCC(Oc2ccc3cnc(Nc4ccc(S(C)(=O)=O)cc4)nc3c2)CC1 [Compound 331, 7-(1-isopropylpiperidin-4-yloxy)-N-(4-(methylsulfonyl)phenyl)quinazolin-2-amine] | < 5 | < 5 | – | – | –
20 | C#Cc1cc(OC2CCCNCC2)c2nc(Nc3ccc(N4CCOCC4)cc3)ncc2c1 (centres unmarked) [Compound 1031, 8-(azepan-4-yloxy)-6-ethynyl-N-(4-morpholinophenyl)quinazolin-2-amine] | – | – | < 5 | – | < 5
21 | CC(=O)Nc1ccc(Nc2ncc3cccc(-c4ccc(NCCN5CCCC5)nc4)c3n2)cc1Cl [Compound 1024, N-(2-chloro-4-(8-(6-(2-(pyrrolidin-1-yl)ethylamino)pyridin-3-yl)quinazolin-2-ylamino)phenyl)acetamide] | – | – | < 5 | < 5 | –
22 | Fc1cc(Nc2ncc3c(Cl)ccc(OC4CCNCC4)c3n2)ccc1N1CCOCC1 [Compound 597, 5-chloro-N-(3-fluoro-4-morpholinophenyl)-8-(piperidin-4-yloxy)quinazolin-2-amine] | 5 to 10 | < 5 | – | – | –
